Data as given in article PMC6485937 (Archives of toxicology, 2016).

What was measured:
[1] = test system: D. japonica cholinesterase (DjChE); experiment: Kinetics of irreversible; type: biochemical, Dugesia japonica; settings: for kr (bimolecular rate constant), rates of inhibition by OP oxons / kr (bimolecular rate constant), rates of inhibition by carbamylating agents: 1 mM ATCh, room temperature, mean± 95% confidence intervals; for Inhibition of ATCh or BTCh hydrolysis: 1 mM ATCh or BTCh
[2] = test system: diethylphosphoryl DjChE (OP inhibited D. japonica cholinesterase); experiment: Reactivation of OP inhibited DjChE by oximes or NaF; type: biochemical, Dugesia japonica
[3] = test system: D. japonica cholinesterase (DjChE); experiment: Substrate hydrolysis by DjChE in homogenates; type: biochemical, Dugesia japonica; settings: mean ± SE of 6 independent experiments
human AChE = human AChE in vitro; ref Radić et al. 2013; cited from earlier work
[4] = in mammals; ref Radić et al. 2012; cited from earlier work

COP(=O)(OC)OC=C(Cl)Cl [Dichlorvos, dichlorvos]
kr (bimolecular rate constant), rates of inhibition by OP oxons [1]: 9.1± 0.9 × 10^5 M^−1min^−1

CN(C)C(=O)Oc1ccc[n+](C)c1 [Pyridostigmine, pyridostigmine]
kr (bimolecular rate constant), rates of inhibition by carbamylating agents [1]: 0.10± 0.01 × 10^5 M^−1 min^−1

pyridine-2-aldoxime [2-PAM]
mean kobs of reactivation ([2]; 4 mM 2-PAM, diazinon oxon inhibited DjChE): 0.0058 min⁻¹

CCOP(=O)(OCC)Oc1ccc([N+](=O)[O-])cc1 [Paraoxon, paraoxon]
kr (bimolecular rate constant), rates of inhibition by OP oxons [1]: 1.7± 0.1 × 10^5 M^−1min^−1

CCOC(=O)CC(SP(=O)(OC)OC)C(=O)OCC (stereo not shown) [Malaoxon, malaoxon]
kr (bimolecular rate constant), rates of inhibition by OP oxons [1]: 0.14± 0.01 × 10^5 M^−1min^−1

CNC(=O)Oc1cccc2ccccc12 [Carbaryl, carbaryl]
kr (bimolecular rate constant), rates of inhibition by carbamylating agents [1]: 0.00064± 0.00008 × 10^5 M^−1 min^−1

CN(C)C(=O)Oc1cccc([N+](C)(C)C)c1 [Neostigmine, neostigmine]
kr (bimolecular rate constant), rates of inhibition by carbamylating agents [1]: 1.3±0.2 × 10^5 M^−1 min^−1

CNC(=O)Oc1ccc2c(c1)[C@]1(C)CCN(C)[C@@H]1N2C [Physostigmine, physostigmine]
kr (bimolecular rate constant), rates of inhibition by carbamylating agents [1]: 0.32± 0.02 × 10^5 M^−1 min^−1

[F-].[Na+] [NaF, sodium fluoride]
Reactivation rate of 10 mM NaF relative to 4 mM 2-PAM ([2]; 10 mM NaF vs 4 mM 2-PAM): four times faster
mean kobs of reactivation ([2]; 10 mM NaF, OP inhibited DjChE): 0.023 min⁻¹

CCOP(=O)(OCC)Oc1cc(C)nc(C(C)C)n1 [Diazinon oxon, diazinon oxon]
kr (bimolecular rate constant), rates of inhibition by OP oxons [1]: 22±2 × 10^5 M^−1min^−1

CCCC(=O)SCC[N+](C)(C)C [BTCh, butyrylthiocholine]
Km [3]: 59 ± 4 µM

chlorpyrifos oxon
kr (bimolecular rate constant), rates of inhibition by OP oxons [1]: 3.0± 0.3 × 10^5 M^−1min^−1

CC(=O)SCC[N+](C)(C)C [ATCh, acetylthiocholine]
Km [3]: 123 ± 6 µM

O=C(C=NO)NCCN1CCCCCC1 [RS194B]
Reactivation rate compared with 2-PAM ([2]; 4 mM oxime, diazinon oxon inhibited DjChE): significantly faster than 2-PAM
Rate of reactivation relative to equimolar 2-PAM (human AChE): 2.5 times faster
Crossing of the blood-brain barrier [4]: crosses the blood-brain barrier

CC(C)NP(=O)(NC(C)C)OP(=O)(NC(C)C)NC(C)C [iso-OMPA, Tetraisopropyl pyrophosphoramide]
Inhibition of ATCh or BTCh hydrolysis ([1]; 5 mM iso-OMPA): only slow inhibition
Inhibition of ATCh or BTCh hydrolysis ([1]; incubation with up to 1 mM iso-OMPA): unable to significantly inhibit
